US10167279B2 (NOVARTIS AG, priority 2014, dated 2019)

Assays:
b-Raf (V600E) = b-Raf (V600E) (Homo sapiens (Human), UniProt P15056, V600E); experiment: In vitro Raf activity determination (Alpha Screen, phospho-MEK), b-Raf (V600E); type: biochemical; settings: ATP 10 μM, 60 min pre-incubation, 3 hours reaction
Source text: The activity of a compound according to the present invention can be assessed by well-known in vitro & in vivo methods. Raf inhibition data provided herein was obtained using the following procedures.
Sf9 cells co-expressing both proteins were lysed and subjected to immobilized nickel chromatography and eluted with Imidazole. A second column (StrepII binding column) was used and eluted with desthiobiotin. Protein Tags were removed using Prescission enzyme and the protein was further purified using a flowthrough step to remove tags.
Full length MEK1 with an inactivating K97R ATP binding site mutation is utilized as a RAF substrate. The MEK1 cDNA was subcloned with an N-terminal (his)6 tag into a vector for E. Coli expression. The MEK1 substrate was purified from E. Coli lysate by nickel affinity chromatography followed by anion exchange. The final MEK1 preparation was biotinylated (Pierce EZ-Link Sulfo-NHS-LC-Biotin) and concentrated.
The plate was incubated for 60 minutes at room temperature. […] The additions were carried out under dark conditions to protect the detection beads from light. A lid was placed on top of the plate and incubated for 1 hour at room temperature, after which the luminescence was read on a PerkinElmer Envision instrument.

C-Raf FL = C-Raf FL (Homo sapiens (Human), UniProt P04049, Y340E/Y341E); experiment: In vitro Raf activity determination (Alpha Screen, phospho-MEK), C-Raf FL (full length, Y340E/Y341E); type: biochemical; settings: ATP 1 μM; 60 min pre-incubation; 1 hour reaction; column head does not say FL or TR
Procedure, shortened: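 Sf9-expressed C-Raf incubated with biotinylated kinase-dead MEK1 (K97R) in 50 mM Tris pH 7.5, 15 mM MgCl2, 0.01% BSA, 1 mM DTT with compound, 60 min at room temperature. Phospho-MEK detected by anti-p-MEK AlphaScreen luminescence; IC50 by non-linear regression.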

Sequence of C-Raf FL (P04049 whole entry Y340E/Y341E): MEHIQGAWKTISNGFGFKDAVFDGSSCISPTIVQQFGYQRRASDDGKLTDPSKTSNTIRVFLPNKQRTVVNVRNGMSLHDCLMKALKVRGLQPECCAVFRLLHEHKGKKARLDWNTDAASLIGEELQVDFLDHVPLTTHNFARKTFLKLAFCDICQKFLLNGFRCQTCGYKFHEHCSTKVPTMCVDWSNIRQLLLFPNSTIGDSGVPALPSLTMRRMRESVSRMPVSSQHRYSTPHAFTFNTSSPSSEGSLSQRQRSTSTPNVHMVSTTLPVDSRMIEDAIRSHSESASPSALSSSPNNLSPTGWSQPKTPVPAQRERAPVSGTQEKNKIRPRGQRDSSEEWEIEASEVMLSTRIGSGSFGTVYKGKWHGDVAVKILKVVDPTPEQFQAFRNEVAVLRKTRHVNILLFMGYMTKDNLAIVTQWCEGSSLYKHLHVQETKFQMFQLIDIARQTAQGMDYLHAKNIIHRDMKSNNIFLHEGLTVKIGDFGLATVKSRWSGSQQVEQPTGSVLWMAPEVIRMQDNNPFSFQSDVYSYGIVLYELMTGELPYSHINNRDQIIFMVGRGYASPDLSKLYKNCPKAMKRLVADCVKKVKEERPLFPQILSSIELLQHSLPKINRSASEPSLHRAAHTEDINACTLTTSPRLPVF
Sequence of C-Raf FL (P63104 whole entry partner): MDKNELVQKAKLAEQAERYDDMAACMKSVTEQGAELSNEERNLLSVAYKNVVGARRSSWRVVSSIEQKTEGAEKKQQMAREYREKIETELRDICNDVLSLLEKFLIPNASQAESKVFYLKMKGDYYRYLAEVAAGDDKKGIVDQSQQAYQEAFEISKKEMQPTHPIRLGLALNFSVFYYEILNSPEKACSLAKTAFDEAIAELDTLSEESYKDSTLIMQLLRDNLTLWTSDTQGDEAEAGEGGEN
Sequence of b-Raf (V600E) (P15056 whole entry V600E): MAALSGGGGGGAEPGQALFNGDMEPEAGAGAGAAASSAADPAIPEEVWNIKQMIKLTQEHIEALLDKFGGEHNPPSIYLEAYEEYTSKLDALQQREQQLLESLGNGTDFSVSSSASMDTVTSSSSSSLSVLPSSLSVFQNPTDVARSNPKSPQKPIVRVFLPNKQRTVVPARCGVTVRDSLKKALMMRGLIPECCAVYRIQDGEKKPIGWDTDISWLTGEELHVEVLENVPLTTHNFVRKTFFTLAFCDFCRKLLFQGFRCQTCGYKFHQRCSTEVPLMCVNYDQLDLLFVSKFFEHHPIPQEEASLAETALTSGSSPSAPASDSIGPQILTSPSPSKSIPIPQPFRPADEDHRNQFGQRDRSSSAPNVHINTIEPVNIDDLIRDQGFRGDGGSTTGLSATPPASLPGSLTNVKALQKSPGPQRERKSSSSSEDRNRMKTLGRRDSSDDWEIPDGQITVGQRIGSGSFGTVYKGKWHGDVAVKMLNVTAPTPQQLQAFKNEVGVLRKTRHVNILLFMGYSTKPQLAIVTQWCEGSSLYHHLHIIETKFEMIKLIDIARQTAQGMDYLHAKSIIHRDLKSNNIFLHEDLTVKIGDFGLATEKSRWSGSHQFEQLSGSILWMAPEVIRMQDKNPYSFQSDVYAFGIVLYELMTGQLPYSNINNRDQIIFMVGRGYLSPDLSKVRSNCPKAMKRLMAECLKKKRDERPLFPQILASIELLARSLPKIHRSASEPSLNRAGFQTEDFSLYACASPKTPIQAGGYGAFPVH

| SMILES | IC50 (b-Raf (V600E)) | IC50 (C-Raf FL) |
| --- | --- | --- |
| COc1ncc(-c2cc(C(=O)Nc3ccnc(S(C)(=O)=O)c3)ccc2C)cc1C1(O)COC1 [Example 145, 3-(5-(3-hydroxyoxetan-3-yl)-6-methoxypyridin-3-yl)-4-methyl-N-(2-(methylsulfonyl)pyridin-4-yl)benzamide] | 49.3 nM | 7.29 nM |
| COc1ncc(-c2cc(NC(=O)c3cc(C(C)(C)N)cc(C(F)(F)F)c3)cnc2C)cc1C1(C#N)COC1 [Example 114, 3-(2-aminopropan-2-yl)-N-(5′-(3-cyanooxetan-3-yl)-6′-methoxy-2-methyl-[3,3′-bipyridin]-5-yl)-5-(trifluoromethyl)benzamide] | 17.5 nM | 3.26 nM |
| CCOc1ncc(-c2cc(NC(=O)c3cnnc(C(C)(C)C#N)c3)cnc2C)cc1C1(C)COC1 [Example 65, 6-(2-cyanopropan-2-yl)-N-(6′-ethoxy-2-methyl-5′-(3-methyloxetan-3-yl)-[3,3′-bipyridin]-5-yl)pyridazine-4-carboxamide] | 7.13 nM | 1.13 nM |
| CCOc1nnc(-c2cc(NC(=O)c3ccnc(C(C)(C)F)c3)cnc2C)cc1C1(C)COC1 [Example 128, N-(5-(6-ethoxy-5-(3-methyloxetan-3-yl)pyridazin-3-yl)-6-methylpyridin-3-yl)-2-(2-fluoropropan-2-yl)isonicotinamide] | 2.15 nM | 0.633 nM |
| COc1ncc(-c2cc(NC(=O)c3ccnc(C(C)(C)O)c3)cnc2C)cc1C1(F)COC1 [Example 81, N-(5′-(3-fluorooxetan-3-yl)-6′-methoxy-2-methyl-[3,3′-bipyridin]-5-yl)-2-(2-hydroxypropan-2-yl)isonicotinamide] | 34.9 nM | 4.85 nM |
| Cc1ncc(NC(=O)c2cccc(C(F)(F)F)c2)cc1-c1cnc(OC2CCOCC2)c(C2(O)COC2)c1 [Example 118, N-(5′-(3-hydroxyoxetan-3-yl)-2-methyl-6′-((tetrahydro-2H-pyran-4-yl)oxy)-[3,3′-bipyridin]-5-yl)-3-(trifluoromethyl)benzamide] | 3.89 nM | 0.562 nM |
| COc1ncc(-c2cc(NC(=O)c3cccc(C(F)(F)F)c3)cnc2C)cc1C1(O)COC1 [Example 97, N-(5′-(3-hydroxyoxetan-3-yl)-6′-methoxy-2-methyl-[3,3′-bipyridin]-5-yl)-3-(trifluoromethyl)benzamide] | 10.4 nM | 1.41 nM |
| COc1ncc(-c2cc(NC(=O)c3ccnc(C4(C#N)CC4)c3)ccc2C)cc1C1(O)COC1 [Example 100] | 2.2 nM | 0.3 nM |
| COc1ncc(-c2cc(NC(=O)c3ccnc(C(F)(F)F)c3)cnc2C)cc1C1(F)COC1 [Example 79, N-(5′-(3-fluorooxetan-3-yl)-6′-methoxy-2-methyl-[3,3′-bipyridin]-5-yl)-2-(trifluoromethyl)isonicotin-amide] | 4 nM | 0.493 nM |
| CCOc1nnc(-c2cc(NC(=O)c3ccnc(C(C)(F)F)c3)cnc2C)cc1C1(C)COC1 [Example 127, 2-(1,1-difluoroethyl)-N-(5-(6-ethoxy-5-(3-methyloxetan-3-yl)pyridazin-3-yl)-6-methylpyridin-3-yl)isonicotinamide] | 3.15 nM | 0.987 nM |
| Cc1ccc(NC(=O)c2ccnc(C(C)(C)O)c2)cc1-c1cc(C2(C)COC2)c2nccn2n1 [Example 62, 2-(2-hydroxypropan-2-yl)-N-(4-methyl-3-(8-(3-methyloxetan-3-yl)imidazo[1,2-b]pyridazin-6-yl)phenyl)isonicotinamide] | 3.77 nM | 0.707 nM |
| Cc1ncc(NC(=O)c2cc(C(C)(C)C#N)ccn2)cc1-c1cccc(C2(C)COC2)c1 [Example 126, 4-(2-cyanopropan-2-yl)-N-(6-methyl-5-(3-(3-methyloxetan-3-yl)phenyl)pyridin-3-yl)picolinamide] | 7.74 nM | 1.97 nM |
| Cc1ncc(NC(=O)c2cccc(C(F)(F)F)c2)cc1-c1cnc(OCCO)c(C2(O)COC2)c1 [Example 36, N-(6′-(2-hydroxyethoxy)-5′-(3-hydroxyoxetan-3-yl)-2-methyl-[3,3′-bipyridin]-5-yl)-3-(trifluoromethyl)benzamide] | 12 nM | 1.84 nM |
| Cc1ncc(NC(=O)c2ccnc(C(C)(F)F)c2)cc1-c1cnc(OCCO)c(C2(F)COC2)c1 [Example 39, 7-(1,1-difluoroethyl)-N-(5′-(3-fluorooxetan-3-yl)-6′-(2-hydroxyethoxy)-2-methyl-[3,3′-bipyridin]-5-yl)isonotinamide] | 5.9 nM | 1.17 nM |
| COc1ncc(-c2cc(NC(=O)c3cc(C(C)(C)N)cc(C(F)(F)F)c3)ccc2C)cc1C1(C(F)F)COC1 [Example 112, 3-(2-aminopropan-2-yl)-N-(3-(5-(3-(difluoromethyl)oxetan-3-yl)-6-methoxypyridin-3-yl)-4-methylphenyl)-5-(trifluoromethyl)benzamide] | 1.21 nM | 0.225 nM |
| CCOc1ncc(-c2cc(NC(=O)c3ccnc(C(F)(F)F)c3)cnc2C)cc1C1(C)COC1 [Example 63, N-(6′-ethoxy-2-methyl-5′-(3-methyloxetan-3-yl)-[3,3′-bipyridin]-5-yl)-2-(trifluoromethyl)isonicotin-amide] | 0.613 nM | 0.183 nM |
| Cc1ccc(NC(=O)c2cccc(C(F)(F)F)c2)cc1-c1cccc(C2(C)COC2)c1 [Example 25, N-(6-methyl-3′-(3-methyloxetan-3-yl)-[1,1′-biphenyl]-3-yl)-3-(trifluoromethyl)benz-amide] | 0.87 nM | 0.154 nM |
| COc1ncc(-c2cc(NC(=O)c3ccnc(C(F)(F)F)c3)cnc2C)cc1C1(O)COC1 [Example 75, N-(5′-(3-hydroxyoxetan-3-yl)-6′-methoxy-2-methyl-[3,3′-bipyridin]-5-yl)-2-(trifluoromethyl)isonicotin-amide] | 76.6 nM | 6.36 nM |
| Cc1ccc(NC(=O)c2ccnc(C(C)(C)C#N)c2)cc1-c1cnc(OC2CCOCC2)c(C2(O)COC2)c1 [Example 33, 2-(2-cyanopropan-2-yl)-N-(3-(5-(3-hydroxyoxetan-3-yl)-6-((tetrahydro-2H-pyran-4-yl)oxy)pyridin-3-yl)-4-methylphenyl)isonicotin-amide] | 2.14 nM | 0.804 nM |
| CCOc1ncc(-c2cc(NC(=O)c3ccnc(C(C)(C)F)c3)ccc2C)cc1C1(O)COC1 [Example 122, N-(3-(6-ethoxy-5-(3-hydroxyoxetan-3-yl)pyridin-3-yl)-4-methylphenyl)-2-(2-fluoropropan-2-yl)isonicotinamide] | 1.79 nM | 0.321 nM |
| COc1ncc(-c2cc(NC(=O)c3cc(C(C)(C)N)cc(C(F)(F)F)c3)cnc2C)cc1C1(F)COC1 [Example 102, 3-(2-aminopropan-2-yl)-N-(5′-(3-fluorooxetan-3-yl)-6′-methoxy-2-methyl-[3,3′-bipyridin]-5-yl)-5-(trifluoromethyl)benzamide] | 13.2 nM | 2.68 nM |
| COc1ncc(-c2cc(NC(=O)c3ccnc(C(C)(C)C#N)c3)ccc2C)cc1C1(C=O)COC1 [Example 43, 2-(2-cyanopropan-2-yl)-N-(3-(5-(3-formyloxetan-3-yl)-6-methoxypyridin-3-yl)-4-methylphenyl)isonicotin-amide] | 10.2 nM | 2.67 nM |
| CCOc1ncc(-c2cc(NC(=O)c3ccnc(C(C)(C)C#N)c3)ccc2C)cc1C1(O)COC1 [Example 121, 2-(2-cyanopropan-2-yl)-N-(3-(6-ethoxy-5-(3-hydroxyoxetan-3-yl)pyridin-3-yl)-4-methylphenyl)isonicotin-amide] | 4.93 nM | 0.975 nM |
| COc1ncc(-c2cc(NC(=O)c3cc(C(C)(F)F)ccn3)cnc2C)cc1C1(F)COC1 [Example 90, 4-(1,1-difluoroethyl)-N-(5′-(3-fluorooxetan-3-yl)-6′-methoxy-2-methyl-[3,3′-bipyridin]-5-yl)picolinamide] | 3.61 nM | 0.386 nM |
| Cc1ncc(NC(=O)c2cccc(C(F)(F)F)c2)cc1-c1cc(C2(F)COC2)c(=O)n(CCCO)c1 [Example 44, N-(5′-(3-fluorooxetan-3-yl)-1′-(3-hydroxypropyl)-2-methyl-6′-oxo-1′,6′-dihydro-[3,3′-bipyridin]-5-yl)-3-(trifluoromethyl)benzamide] | 67.9 nM | 8.63 nM |
| COc1ncc(-c2cc(NC(=O)c3ccnc(C(C)(F)F)c3)ccc2C)cc1C1(O)COC1 [Example 74, 2-(1,1-difluoroethyl)-N-(3-(5-(3-hydroxyoxetan-3-yl)-6-methoxypyridin-3-yl)-4-methylphenyl)isonicotin-amide] | 2.07 nM | 0.36 nM |
| COc1ncc(-c2cc(NC(=O)c3cc(C(C)(C)C#N)ccn3)cnc2C)cc1C1(F)COC1 [Example 86, 4-(2-cyanopropan-2-yl)-N-(5′-(3-fluorooxetan-3-yl)-6′-methoxy-2-methyl-[3,3′-bipyridin]-5-yl)picolinamide] | 14.7 nM | 2.33 nM |
| COc1ncc(-c2cc(NC(=O)c3ccnc(C(C)(F)F)c3)ccc2C)cc1C1(CF)COC1 [Example 103, 2-(1,1-difluoroethyl)-N-(3-(5-(3-(fluoromethyl)oxetan-3-yl)-6-methoxypyridin-3-yl)-4-methylphenyl)isonicotin-amide] | 0.293 nM | 0.0844 nM |
